According to paper PMC5118987 (Antimicrobial Agents and Chemotherapy, 2016):
Like-named read-outs stand apart in the source and are kept apart here.

Assays:
HBV Production = test: microbe, parasite or virus in culture; settings: Hepatitis B virus
[1] = tested on: NRTI-, NNRTI- and PI-Resistant HIV-1 Mutants; test: Antiviral activity against NRTI-, NNRTI- and PI-resistant HIV-1 mutants; type: cell-based; settings: for EC50: Human immunodeficiency virus 1, WT, Table S7
[2] = Cytotoxicity in AD38 cells; settings: human
in vitro = settings: human, CC50 in Primary Human Hepatocytes
[3] = tested on: HIV-1 integration in MT-2 cells (HIV-1 IIIb); settings: relative to DMSO; for Late reverse transcription products (fold change): HIV-1 IIIb-infected MT-2, compound >20-fold EC50, 12 h; for Alu-LTR integration junctions (fold change) / Integration failure of 2-LTR circles (fold change): HIV-1 IIIb-infected MT-2, compound >20-fold EC50, 24 h
Experimental: Quantification of 2-long terminal repeat (LTR) circles, late reverse transcription products, and integration junctions was adapted from a previously described method ([30]). […] Three hours after viral adsorption, the infected cells were washed twice with 20 ml of RPMI 1640 medium containing 10% FBS and antibiotics and seeded in 6-well plates in 2 ml of culture medium at 1 × 10^6 cells per well. […] These plates were incubated at 37°C for either 12 h (for late reverse transcription product quantification) or 24 h (for 2-LTR circle and Alu-LTR product quantification), after which time the cells were harvested for total DNA isolation. DNA was extracted from each well using the QIAamp DNA minikit (Qiagen, Valencia, CA) and collected as a 100-μl eluate. TaqMan real-time PCR-quantified 2-LTR junctions (2-LTR circles), late reverse transcription products, and integration junctions (Alu-LTR) were normalized to the level of host globin gene in each sample. Quantification by PCR was performed on the ViiA 7 real-time PCR system (Life Technologies, Grand Island, NY).

HIV-1 BaL = settings: primary CD4+ T-cells, 35 days, drug at tissue culture equivalent clinical Cmin (FTC 160 × EC50)
HIV-1 IIIb [4] = test: HIV breakthrough selection in MT-2 cells; settings: MT-2, HIV-1 IIIb; FTC 4× EC95, EVG 5× EC95, BIC and DTG 2.5× and 5× EC95; up to day 32
HIV-1 IIIb [5] = test: Antiviral assay in MT-2 cells; type: cell-based; settings: Human immunodeficiency virus 1, IIIB, MT2; Table S9 footnote b; read-out: EC50 previously determined (start of resistance selection at twice the EC50)
Experimental: For the antiviral assay utilizing MT-2 and MT-4 cells, 50 μl of a 2× test concentration of 5-fold serially diluted compound in culture medium with 10% FBS was added to each well of a 96-well plate (9 concentrations) in triplicate. MT-2 and MT-4 cells were infected with HIV-1 IIIb at a multiplicity of infection (MOI) of 0.01 for 3 h. Fifty microliters of infected cell suspension in culture medium with 10% FBS (∼1.5 × 10^4 cells) then was added to each well containing 50 μl of diluted compound. The plates were then incubated at 37°C for 5 days. After 5 days of incubation, 100 μl of CellTiter-Glo reagent (Promega Biosciences, Inc., Madison, WI) was added to each well containing MT-2 or MT-4 cells. Cell lysis was carried out by incubation at room temperature for 10 min and chemiluminescence was read. For compound cytotoxicity assessment, the protocol was identical except that uninfected cells were used and compounds were serially diluted 3-fold.

[6] = tested on: inhibitor-selected HIV-1 IIIb passages; test: Phenotypic profile of selected HIV-1 passages; type: cell-based; settings: for EC50: Human immunodeficiency virus 1, IIIB
[7] = tested on: INSTI-resistant HIV-1 mutants (HXB2); test: microbe, parasite or virus in culture; type: cell-based
[8] = 480 h, selected virus EVG P2 (day 20, 7.2 nM)
[9] = selected virus BIC P3 (day 47, 6 nM)
[10] = selected virus BIC P5 (day 71, 12 nM)
[11] = selected virus BIC P6 (day 86, 24 nM)
[12] = selected virus BIC P8 (day 156, 96 nM)
[13] = selected virus BIC P9 (day 181, 192 nM)
[14] = selected virus BIC P10 (day 234, 384 nM)
[15] = selected virus DTG P3Lo (day 59, 6.4 nM)
[16] = selected virus DTG P4 (day 87, 9.6 nM)
[17] = selected virus DTG P5 (day 97, 14.4 nM)
[18] = selected virus DTG P7 (day 139, 32.4 nM)
[19] = selected virus DTG P9 (day 174, 72.9 nM)
[20] = selected virus DTG P10 (day 202, 109.4 nM)
[21] = selected virus EVG P4 (day 41, 28.8 nM)
[22] = selected virus EVG P6 (day 56, 115 nM)
[23] = selected virus EVG P7 (day 67, 230 nM)
[24] = selected virus EVG P9 (day 94, 922 nM)
[25] = selected virus EVG P10 (day 119, 1843 nM)

In the case of C[C@H](Cn1cnc2c(N)ncnc21)OCP(=O)(O)O [TFV, tenofovir], the EC50 (HBV Production) is reported as 360 nM, the EC50 [1] is reported as 3720 nM and the “EC50 Fold Change Relative to WT” value ([1]; NRTI resistant 6TAMs) is reported as 7.1 fold change. For the same molecule, the CC50 at 5 days [2] was > 50000 nM.

Molecule COc1ccc(C[C@H](N)C(=O)N[C@H]2[C@@H](O)[C@H](n3cnc4c(N(C)C)ncnc43)O[C@@H]2CO)cc1 [Puromycin] has a CC50 (in vitro; Donor 1) of 1200 nM and a CC50 (in vitro; Donor 2) of 830 nM.

For CC(C)CN(C[C@@H](O)[C@H](Cc1ccccc1)NC(=O)O[C@H]1CO[C@H]2OCC[C@H]21)S(=O)(=O)c1ccc(N)cc1 [DRV, darunavir], the “Late reverse transcription products (fold change)” value [3] was 0.96 ± 0.11 fold change, the “Alu-LTR integration junctions (fold change)” value [3] was 0.72 ± 0.31 fold change and the “Integration failure of 2-LTR circles (fold change)” value [3] was 0.57 ± 0.24 fold change. For the same molecule, the EC50 [1] was 3.5 ± 1.6 nM.

In the case of COC(=O)N[C@H](C(=O)N[C@@H](Cc1ccccc1)[C@@H](O)CN(Cc1ccc(-c2ccccn2)cc1)NC(=O)[C@@H](NC(=O)OC)C(C)(C)C)C(C)(C)C [ATV, atazanavir], the EC50 [1] is reported as 1.6 ± 0.9 nM, the “Frequency of Viral Breakthrough with RAMs” value (“Frequency” for short) (HIV-1 BaL) is reported as 0% and the “p24+ Wells” value (HIV-1 BaL) is reported as 0/24.

In the case of Nc1nc(=O)n([C@@H]2CS[C@H](CO)O2)cc1F [FTC, emtricitabine], the “day postinfection of HIV-1 breakthrough” value (HIV-1 IIIb [4]) is reported as 7 days, the EC50 (HBV Production) is reported as 20 nM and the EC50 [1] is reported as 385 ± 225 nM. The “EC50 Fold Change Relative to WT” value ([1]; NRTI resistant 6TAMs) was 10.8 fold change, the CC50 at 5 days [2] was > 50000 nM and the “Frequency” value (HIV-1 BaL) was 58%. For the same molecule, the “p24+ Wells” value (HIV-1 BaL) was 14/24.

In the case of Cc1cc(/C=C/C#N)cc(C)c1Nc1ccnc(Nc2ccc(C#N)cc2)n1 [RPV, rilpivirine], the EC50 [1] is reported as 0.8 ± 0.4 nM, the “EC50 Fold Change Relative to WT” value ([1]; NNRTI resistant L100I K103N) is reported as 21.9 fold change and the “Frequency” value (HIV-1 BaL) is reported as 25%. For the same molecule, the “p24+ Wells” value (HIV-1 BaL) was 6/24.

With COc1cc2c(cc1Cc1cccc(Cl)c1F)c(=O)c(C(=O)O)cn2[C@H](CO)C(C)C [EVG, elvitegravir] the EC50 (HIV-1 IIIb [5]) was 1.8 nM, the “day postinfection of HIV-1 breakthrough” value (HIV-1 IIIb [4]) was 22 days and the EC50 [6, 8] was 17.8 nM. It also gave an EC50 ([6]; HIV-1-IIIb (unselected)) of 2.1 nM, an EC50 [6, 9] of 5.1 nM and an EC50 [6, 10] of 8.3 nM. For the same molecule, the EC50 [6, 11] was 7.8 nM, the EC50 [6, 12] was 33.6 nM and the EC50 [6, 13] was 55 nM. It also gave an EC50 [6, 14] of 33 nM, an EC50 [6, 15] of 1.7 nM and an EC50 [6, 16] of 5 nM. For the same molecule, the EC50 [6, 17] was 9.3 nM, the EC50 [6, 18] was 15.5 nM and the EC50 [6, 19] was 25.1 nM. The EC50 [6, 20] was 69.2 nM, the EC50 [6, 21] was 30.2 nM and the EC50 [6, 22] was 48.9 nM. For the same molecule, the EC50 [6, 23] was 203 nM, the EC50 [6, 24] was 296 nM and the EC50 [6, 25] was 246 nM. For the same molecule, the EC50 [1] was 2.5 ± 1.5 nM, the “Frequency” value (HIV-1 BaL) was 54% and the “p24+ Wells” value (HIV-1 BaL) was 23/24.

Work on O=C1Nc2ccc(Cl)cc2[C@@](C#CC2CC2)(C(F)(F)F)O1 [EFV, efavirenz] yielded an EC50 ([7]; Human immunodeficiency virus 1, HXB2, IN mutant E92Q) of 1.5 ± 0.3 nM, an EC50 ([7]; Human immunodeficiency virus 1, HXB2, IN mutant E92Q/N155H) of 1.5 ± 0.4 nM and an EC50 ([7]; Human immunodeficiency virus 1, HXB2, IN mutant E138K/Q148K) of 1.9 ± 0.4 nM. The EC50 ([7]; Human immunodeficiency virus 1, HXB2, IN mutant G140S/Q148R) was 1.5 ± 0.3 nM, the EC50 ([7]; Human immunodeficiency virus 1, HXB2, IN mutant M50I (BIC/DTG selection)) was 1.1 ± 0.4 nM and the EC50 ([7]; Human immunodeficiency virus 1, HXB2, IN mutant M50I/R263K (BIC selection)) was 1 ± 0.3 nM. For the same molecule, the EC50 ([7]; Human immunodeficiency virus 1, HXB2, IN mutant M50I/S119R/R263K (DTG selection)) was 3.2 ± 1.8 nM, the EC50 ([7]; Human immunodeficiency virus 1, HXB2, IN mutant N155H) was 1.6 ± 0.05 nM and the EC50 ([7]; Human immunodeficiency virus 1, HXB2, IN mutant N155H/Q148R) was 2.2 ± 0.8 nM. The EC50 ([7]; Human immunodeficiency virus 1, HXB2, IN mutant Q148R) was 1.7 ± 0.1 nM, the EC50 ([7]; Human immunodeficiency virus 1, HXB2, IN mutant R263K (BIC/DTG selection), Table 7) was 1 ± 0.4 nM and the EC50 ([7]; Human immunodeficiency virus 1, HXB2, IN mutant R263K, Table 6) was 1.8 ± 0.3 nM. It also gave an EC50 ([7]; Human immunodeficiency virus 1, HXB2, IN mutant S119R (DTG selection)) of 2.1 ± 1.1 nM, an EC50 ([7]; Human immunodeficiency virus 1, HXB2, IN mutant S119R/R263K (DTG selection)) of 2.1 ± 1 nM and an EC50 ([7]; Human immunodeficiency virus 1, HXB2, IN mutant S153Y (DTG selection)) of 2.2 ± 1.1 nM. For the same molecule, the EC50 ([7]; Human immunodeficiency virus 1, HXB2, IN mutant S153Y/R263K (DTG selection)) was 2 ± 0.7 nM, the EC50 ([7]; Human immunodeficiency virus 1, HXB2, IN mutant Y143R) was 1.7 ± 0.1 nM and the EC50 ([7]; Human immunodeficiency virus 1, HXB2, WT (HXB2), Table 6, read-out: EC50) was 1.9 ± 0.3 nM. The EC50 ([7]; Human immunodeficiency virus 1, HXB2, WT (HXB2), Table 7, read-out: EC50) was 1.2 ± 0.4 nM, the “Fold-Resistance Relative to HIV-1 IIIb” value ([6]; HIV-1-IIIb (reference)) was 1 fold and the EC50 [6, 8] was 3 nM. For the same molecule, the EC50 ([6]; HIV-1-IIIb (unselected)) was 1.6 nM, the EC50 [6, 9] was 1.6 nM and the EC50 [6, 10] was 1.2 nM. The EC50 [6, 11] was 1.3 nM, the EC50 [6, 12] was 1.7 nM and the EC50 [6, 13] was 2.8 nM. It also gave an EC50 [6, 14] of 2.7 nM, an EC50 [6, 15] of 1.2 nM and an EC50 [6, 16] of 1.8 nM. For the same molecule, the EC50 [6, 17] was 1.7 nM, the EC50 [6, 18] was 2.3 nM and the EC50 [6, 19] was 2.1 nM. The EC50 [6, 20] was 2.8 nM, the EC50 [6, 21] was 2.8 nM and the EC50 [6, 22] was 2.4 nM. The EC50 [6, 23] was 3.6 nM, the EC50 [6, 24] was 3.2 nM and the EC50 [6, 25] was 2 nM. For the same molecule, the “Fold-Resistance Relative to HIV-1 IIIb” value ([6]; selected virus BIC P3) was 1 fold, the “Fold-Resistance Relative to HIV-1 IIIb” value ([6]; selected virus BIC P5) was 0.8 fold and the “Fold-Resistance Relative to HIV-1 IIIb” value ([6]; selected virus BIC P6) was 0.8 fold. For the same molecule, the “Fold-Resistance Relative to HIV-1 IIIb” value ([6]; selected virus BIC P8) was 1.1 fold, the “Fold-Resistance Relative to HIV-1 IIIb” value ([6]; selected virus BIC P9) was 1.8 fold and the “Fold-Resistance Relative to HIV-1 IIIb” value ([6]; selected virus BIC P10) was 1.7 fold. For the same molecule, the “Fold-Resistance Relative to HIV-1 IIIb” value ([6]; selected virus DTG P3Lo) was 0.8 fold, the “Fold-Resistance Relative to HIV-1 IIIb” value ([6]; selected virus DTG P4) was 1.1 fold and the “Fold-Resistance Relative to HIV-1 IIIb” value ([6]; selected virus DTG P5) was 1.0 fold. For the same molecule, the “Fold-Resistance Relative to HIV-1 IIIb” value ([6]; selected virus DTG P7) was 1.4 fold, the “Fold-Resistance Relative to HIV-1 IIIb” value ([6]; selected virus DTG P9) was 1.3 fold and the “Fold-Resistance Relative to HIV-1 IIIb” value ([6]; selected virus DTG P10) was 1.8 fold. For the same molecule, the “Fold-Resistance Relative to HIV-1 IIIb” value ([6]; selected virus EVG P2) was 1.8 fold, the “Fold-Resistance Relative to HIV-1 IIIb” value ([6]; selected virus EVG P4) was 1.7 fold and the “Fold-Resistance Relative to HIV-1 IIIb” value ([6]; selected virus EVG P6) was 1.5 fold. The “Fold-Resistance Relative to HIV-1 IIIb” value ([6]; selected virus EVG P7) was 2.2 fold, the “Fold-Resistance Relative to HIV-1 IIIb” value ([6]; selected virus EVG P9) was 2.0 fold and the “Fold-Resistance Relative to HIV-1 IIIb” value ([6]; selected virus EVG P10) was 1.2 fold. For the same molecule, the “Late reverse transcription products (fold change)” value [3] was 0.21 ± 0.07 fold change, the “Alu-LTR integration junctions (fold change)” value [3] was 0.10 ± 0.05 fold change and the “Integration failure of 2-LTR circles (fold change)” value [3] was 0.05 ± 0.04 fold change. For the same molecule, the EC50 [1] was 1.2 ± 0.4 nM, the “EC50 Fold Change Relative to WT” value ([1]; NNRTI resistant L100I K103N) was > 83 fold change and the “Frequency” value (HIV-1 BaL) was 17%. The “p24+ Wells” value (HIV-1 BaL) was 2/12.
